The test system of assay [1] is bacteria (including S. aureus, E. coli, P. aeruginosa, and C. maltaromaticum) and fungi (including, C. albicans, A. niger, and Penicillium sp.). The assay can be described thus: Biocide efficacy: concentrations (CFU per milliliter) of contaminants over time on plates treated with biocide. It is filed as cell-based. The settings on record: for decrease or elimination of the bacteria and/or fungi contaminants: plates. From the text: FIG. 3 is a graphical plot showing the concentrations (measured in CFU per milliliter) of various contaminants (y-axis), such as, by way of example only, bacteria and fungi, over a period of time in weeks (x-axis) on plates treated with a concentration of about 20 ppm hexahydro 1,3,5-tris(2-hydroxy ethyl)-S-triazine (“Onyxide200”) biocide in accordance with the presently disclosed and/or claimed inventive concept(s).
FIG. 4A is a graphical plot showing the concentrations (measured in CFU per milliliter) of various contaminants (y-axis), such as, by way of example only, bacteria and fungi, over a period of time in weeks (x-axis) on plates treated with a concentration of about 5 ppm of 5-chloro-2-methylisothiazol-3(2H)-one (“Cl-MlT”) biocide in accordance with the presently disclosed and/or claimed inventive concept(s).
FIG. 5A is a graphical plot showing the concentrations (measured in CFU per milliliter) of various contaminants (y-axis), such as, by way of example only, bacteria and fungi, over a period of time in weeks (x-axis) on plates treated with a combination of concentrations of about 20 ppm of Onyxide200 biocide and about 4 ppm of Cl-MlT biocide in accordance with the presently disclosed and/or claimed inventive concept(s).
Referring now to FIG. 3, shown therein is a graphical plot showing the concentrations (measured in CFU per milliliter) of various contaminants (y-axis), such as, by way of example only, bacteria (including S. aureus, E. coli, P. aeruginosa, and C. maltaromaticum) and fungi (including, C. albicans, A. niger, and Penicillium sp.) over a period of five weeks (x-axis) on plates treated with a concentration of about 20 ppm of the individual aqueous biocide Onyxide200 in accordance with the presently disclosed and/or claimed inventive concept(s). […]
Referring now to FIG. 5A, shown therein is a graphical plot showing the concentrations (measured in CFU per milliliter) of various contaminants (y-axis), such as, by way of example only, bacteria (including S. aureus, E. coli, P. aeruginosa, and C. maltaromaticum) and fungi (including, C. albicans, A. niger, and Penicillium sp.) over a period of six weeks (x-axis) on plates treated with a combined aqueous biocide formulation comprising concentrations of about 20 ppm of Onyxide200 biocide and about 4 ppm of Cl-MlT biocide in accordance with the presently disclosed and/or claimed inventive concept(s). […] This is synergistic effect allows for a significant increase in the formulation's efficacy for contaminant removal over the individual component biocides (Onyxide200 and Cl-MlT) which comprise the formulation.

Assay [2] concerns creatinase enzyme of creatinine detection sensors. The assay can be described thus: Inactivation of the enzyme of creatinine detection sensors after exposure to biocide. It is filed as biochemical. As to conditions: individual biocide; creatinine detection sensor; 'in as little as'. From the text:
Biocides are often used to preserve the at least one analyte detection sensor(s) of a sensor array present in a blood gas, electrolyte, and/or metabolite instrument. However, when such analyte detection sensor(s) is a creatinine detection sensor(s), these biocides inactivate some or all of the enzymes present on and/or in the creatinine sensor(s). In the context of creatinine sensors, such sensors rely on enzymes containing free sulfhydryl groups (—SH) for the proper and continuous functioning of the sensors. Such free sulfhydryl groups chemically react with certain species of biocide(s) (such as, Cl-MlT) that result in the inactivation of the creatinine sensor's(s′) enzymes, thereby resulting in decreased (or total loss) of functional utility and/or functional life of the creatinine sensor(s). Such inactivation can occur very rapidly. […]
Referring now to FIG. 4A, shown therein is a graphical plot showing the concentrations (measured in CFU per milliliter) of various contaminants (y-axis), such as, by way of example only, bacteria (including S. aureus, E. coli, P. aeruginosa, and C. maltaromaticum) and fungi (including, C. albicans, A. niger, and Penicillium sp.) over a period of six weeks (x-axis) on plates treated with a concentration of about 5 ppm of the individual aqueous biocide Cl-MlT in accordance with the presently disclosed and/or claimed inventive concept(s).

Here are results for 2 compounds from patent US20250302043A1, “BIOCIDE FORMULATIONS FOR THE PRESERVATION OF ANALYTE DETECTION SENSOR(S) AND METHOD(S) OF USE AND THEREOF” (Siemens Healthcare Diagnostics Inc., priority 2019, published 2025).

In the case of `Cn1sc(Cl)cc1=O` [Cl-MlT, 5-chloro-2-methylisothiazol-3(2H)-one], the “week of plating at which decrease and/or elimination was obtained for some contaminants” value in assay [1] (about 1 ppm individual aqueous biocide, FIG. 4B) is given as greater than 6 week. Also, the “decrease or elimination of the bacteria and/or fungi contaminants” value in assay [1] (about 1 ppm individual aqueous biocide, six weeks, FIG. 4B) is recorded as “eventually resulted in a decrease or elimination of only some of the bacteria and/or fungi contaminants”; in assay [1] (about 5 ppm individual aqueous biocide, six weeks, FIG. 4A), “eventually resulted in a decrease or elimination of the bacteria and/or fungi contaminants”. In addition, the “week after plating at which decrease and/or elimination was obtained for some contaminants” value in assay [1] (about 5 ppm individual aqueous biocide, FIG. 4A) came out at 5 week. For the same compound, in assay [2], the “time after exposure at which inactivation of the enzyme occurs” value was 1 to 4 days.

Turning to `OCCN1CN(CCO)CN(CCO)C1` [Onyxide200, hexahydro 1,3,5-tris(2-hydroxyethyl)-S-triazine], the “decrease or elimination of the bacteria and/or fungi contaminants” value in assay [1] (about 20 ppm individual aqueous biocide, five weeks, FIG. 3) is “did not result in a substantial decrease or elimination of the bacteria and/or fungi contaminants”.
